Assay results: US20120128860A1, “PREPARATION OF VEGETABLE MATERIAL AND FOOD PRODUCTS” (priority 2009, published 2012)

Tested on: tobacco plants (Nicotiana tabacum)
Test: Chlorophyll a and b content of tobacco leaves after pre-harvest kinetin treatment, soaking and storage
Assay type: in vivo
Parameters: reduction after 27 d (chlorophyll): concentration or dose not given beside the values
Conditions: cytokinin 5 days pre-harvest; for reduction after 27 d (chlorophyll): 27 d storage; for chlorophyll level after 0 d storage / chlorophyll level after 3 d storage / chlorophyll level after 7 d storage / chlorophyll level after 10 d storage / chlorophyll level after 14 d storage / chlorophyll level after 20 d storage / chlorophyll level after 27 d storage: stored 4° C. dark
Experimental: Determination of chlorophyll contents of fresh leaves using a spectrophotometer. Procedure: • 1. Homogenisation of plant tissue (100 mg) in liquid nitrogen. For each data point at least three biological samples were harvested. • 2. Addition of 400 microliter acetone in 10 micromolar KOH and subsequent vortexing • 3. Centrifugation of the homogenate at 13,000 rpm for 10 min to remove cell debris and proteins • 4. Transfer of the supernatant into new test tubes • 5. Addition 200 microliter of extraction mixture to the pellet as mentioned above and vortexing • 6. Centrifugation of the homogenate at 13,000 rpm for 10 min • 7. Mix of the supernatant with the supernatant from step 4 • 8. Repeat of steps 5-7 three times until the pellet is completely white • 9. Dilution of the sample 1:10 in acetone and measurement of absorption at 664, 646/7 and 750 nm in a spectrophotometer. All absorbance measurements at the indicated wavelength need subtraction of the absorbance at 750 nm. Calculation of the chlorophyll contents by comparing with calibration curves.
Determination of chlorophyll contents of leaves by HPLC. Procedure: • 1. Homogenisation of 100 mg plant material in liquid nitrogen in a test tube • 2. Addition of 500 microliter acetone with 10 micromolar KOH and vortexing. • 3. Centrifugation of the suspension for 10 min at 4° C. at 13.000 rpm. • 4. The supernatant is transferred into new test tube • 5. Addition of 500 microliter acetone to the pellet and resuspension of the pellet • 6. Centrifugation for 10 min at 4° C. at 13.000 rpm. • 7. The supernatant is combined with the supernatant from step 4 • 8. The samples are vortexed and centrifuged for 10 min at 4° C. at 13,000 rpm. • 9. A 40 microliter aliquot of the extract is mixed with 160 microliter water • 10. The sample is transferred into a HPLC vial • 11. An aliquot of 10-100 microliter is injected into the HPLC column (RP C18 column) • 12. Running buffers: Acetonitril/H2O/triethylamine (1798:200:2) and ethyl acetate
Objective of the experiments: to combine effects of pre-harvest treatment of tobacco plants with the growth hormone kinetin and subsequently soaking with a buffer solution on the stability of chlorophyll after heat treatment followed by different storage periods.
A 1 mM kinetin solution in water was made by dissolving kinetin dropwise with 10 microliter 1M NaOH, then the solution was neutralized to pH 7.0 with HCl. This 1 mM kinetin aqueous solution was injected into the leaves of growing tobacco plants (Nicotiana tabacum). The application of cytokinin was repeated once a day for five successive days. At day 7, tobacco leaves were harvested and stored in aluminium foils. Control plants were treated with the same solution at pH 7.0 (in water), but without kinetin.
After harvest, leaves of the harvested plants (both treated with cytokinin, as well as the control plants) were separated in batches, which were subsequently treated at different temperatures in one the following ways: • 1. leaves were soaked in tap water during 1 minute at room temperature; • 2. leaves were soaked in a buffer solution of pH 7.2 during 1 minute at room temperature; • 3. leaves were soaked in tap water during 1 minute at 70° C.; • 4. leaves were soaked in a buffer solution of pH 7.2 during 1 minute at 70° C.; • 5. leaves were soaked in tap water during 1 minute at 90° C.; • 6. leaves were soaked in a buffer solution of pH 7.2 during 1 minute at 90° C.;
Immediately after each of these steps, the soaked leaves were cooled shortly in a cold tap water bath at 3° C.
The aqueous buffer solution contained 137 mM NaCl, 2.7 mM KCL, 10 mM Na2HPO4 and 2 mM KH2PO4, and was adjusted to pH 7.2 with more hydrogen phosphate or dihydrogenphosphate if required.
Finally the chlorophyll content of the leaves was quantified after storage in tissue papers at 4° C. in the dark at various moments in time. […]

[1] = soaked 1 min in buffer pH 7.2 at 70° C.
[2] = soaked 1 min in buffer pH 7.2 at 90° C.
[3] = soaked 1 min in buffer pH 7.2 at room temperature
[4] = soaked 1 min in water at 70° C.
[5] = soaked 1 min in water at 90° C.
[6] = soaked 1 min in water at room temperature

## c1coc(CNc2ncnc3[nH]cnc23)c1 [cytokinin, 6-furfurylaminopurine]
[1]
  reduction after 27 d (chlorophyll): 11%
  chlorophyll level after 0 d storage: 18 micromole per gram fresh weight
  chlorophyll level after 3 d storage: 17.5 micromole per gram fresh weight
  chlorophyll level after 7 d storage: 17.2 micromole per gram fresh weight
  chlorophyll level after 10 d storage: 17 micromole per gram fresh weight
  chlorophyll level after 14 d storage: 17 micromole per gram fresh weight
  chlorophyll level after 20 d storage: 16.8 micromole per gram fresh weight
  chlorophyll level after 27 d storage: 16 micromole per gram fresh weight
[2]
  chlorophyll level after 0 d storage: 18 micromole per gram fresh weight
  chlorophyll level after 3 d storage: 17.5 micromole per gram fresh weight
  chlorophyll level after 7 d storage: 17 micromole per gram fresh weight
  chlorophyll level after 10 d storage: 16.5 micromole per gram fresh weight
  chlorophyll level after 14 d storage: 16 micromole per gram fresh weight
  chlorophyll level after 20 d storage: 15.5 micromole per gram fresh weight
  chlorophyll level after 27 d storage: 15 micromole per gram fresh weight
[3]
  reduction after 27 d (chlorophyll): 17%
  chlorophyll level after 0 d storage: 18.5 micromole per gram fresh weight
  chlorophyll level after 3 d storage: 17.5 micromole per gram fresh weight
  chlorophyll level after 7 d storage: 16.5 micromole per gram fresh weight
  chlorophyll level after 10 d storage: 15.5 micromole per gram fresh weight
  chlorophyll level after 14 d storage: 16 micromole per gram fresh weight
  chlorophyll level after 20 d storage: 15.5 micromole per gram fresh weight
  chlorophyll level after 27 d storage: 15 micromole per gram fresh weight
[4]
  chlorophyll level after 0 d storage: 17.5 micromole per gram fresh weight
  chlorophyll level after 3 d storage: 17 micromole per gram fresh weight
  chlorophyll level after 7 d storage: 16.5 micromole per gram fresh weight
  chlorophyll level after 10 d storage: 16.5 micromole per gram fresh weight
  chlorophyll level after 14 d storage: 16 micromole per gram fresh weight
  chlorophyll level after 20 d storage: 16 micromole per gram fresh weight
  chlorophyll level after 27 d storage: 15.5 micromole per gram fresh weight
[5]
  reduction after 27 d (chlorophyll): 50%
  chlorophyll level after 0 d storage: 15 micromole per gram fresh weight
  chlorophyll level after 3 d storage: 13.5 micromole per gram fresh weight
  chlorophyll level after 7 d storage: 12.5 micromole per gram fresh weight
  chlorophyll level after 10 d storage: 11 micromole per gram fresh weight
  chlorophyll level after 14 d storage: 9.8 micromole per gram fresh weight
  chlorophyll level after 20 d storage: 8.8 micromole per gram fresh weight
  chlorophyll level after 27 d storage: 7.5 micromole per gram fresh weight
[6]
  reduction after 27 d (chlorophyll): 9%
  chlorophyll level after 0 d storage: 18 micromole per gram fresh weight
  chlorophyll level after 3 d storage: 17.8 micromole per gram fresh weight
  chlorophyll level after 7 d storage: 17.2 micromole per gram fresh weight
  chlorophyll level after 10 d storage: 16.5 micromole per gram fresh weight
  chlorophyll level after 14 d storage: 16.2 micromole per gram fresh weight
  chlorophyll level after 20 d storage: 16 micromole per gram fresh weight
  chlorophyll level after 27 d storage: 16 micromole per gram fresh weight
